Experimental findings from ChEMBL document CHEMBL1201862, “PubChem BioAssay data set” (2004) are described below.

Some test systems named below: A498; A549; ACHN; CAKI-1; DU-145; EKVX; HOP-92; KM12; MDA-MB-231; MDA-MB-435; MDA-N; MOLT-4; Malme-3M; NCI/ADR-RES; OVCAR-5; RXF 393; SF-295; SN12C; SW-620; UACC-62.
What all share (assay): NCI tumour cell line growth inhibition, 48 h

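48-hour exposure; five concentrations; linearly interpolated endpoints. GI50 = concentration required for 50% inhibition of growth.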 Active and inactive are the calls of the source. Rule as the data show it: active = GI50 up to about 1.1 µM and inactive = higher.

Consider `OC1CC2CCC(C1)N2CCCN1c2ccccc2Sc2ccc(Cl)cc21` (stereo not given), for which the GI50 is 1.84 µM (inactive) in the assay with A498; 2.54 µM (inactive) with A549; 2.23 µM (inactive) in the assay with ACHN; 3.01 µM (inactive) in the assay with CAKI-1; 3.81 µM (inactive) in the assay with DU-145; 3.72 µM (inactive) in the assay on EKVX. Besides, the GI50 in the assay on HOP-92 was 2.5 µM (inactive); in the assay with KM12, 1.95 µM (inactive); in the assay on MDA-MB-231, 1.84 µM (inactive); in the assay with MDA-MB-435 it was 1.73 µM (inactive); in the assay with MDA-N, 1.87 µM (inactive); in the assay with MOLT-4 it was 2.29 µM (inactive). Besides, the GI50 is 1.87 µM (inactive) in the assay on Malme-3M; 2.36 µM (inactive) in the assay with NCI/ADR-RES; 2.82 µM (inactive) in the assay on OVCAR-5; 1.74 µM (inactive) in the assay with RXF 393; 1.75 µM (inactive) in the assay with SF-295; 3.73 µM (inactive) with SN12C. The values for the GI50 with SW-620 and in the assay with UACC-62 were 2.43 µM (inactive) and 1.64 µM (inactive), respectively.
With `[N-]=[N+]=NC1C(O)C(CO)OC1n1cnc2c(N)ncnc21` (stereo not given), the GI50 in the assay with A498 was 66.8 µM (inactive); in the assay on A549 it was 47.5 µM (inactive); in the assay on ACHN it was 5.28 µM (inactive); in the assay with CAKI-1 it was 40.9 µM (inactive); in the assay on DU-145, 3.04 µM (inactive); in the assay on EKVX, > 100 µM (inactive). The GI50 in the assay with HOP-92 was 45.7 µM (inactive); in the assay on KM12 it was 74.3 µM (inactive); in the assay on MDA-MB-231, > 100 µM (inactive); with MDA-MB-435, 82.6 µM (inactive); in the assay with MDA-N it was 71.3 µM (inactive); in the assay with MOLT-4, 9.51 µM (inactive). Further, the GI50 was > 100 µM (inactive) in the assay on Malme-3M; 27.1 µM (inactive) in the assay on NCI/ADR-RES; > 100 µM (inactive) in the assay on OVCAR-5; 66.2 µM (inactive) with RXF 393; 44.1 µM (inactive) in the assay on SF-295; 25.9 µM (inactive) in the assay on SN12C. Moreover, the GI50 in the assay on SW-620 was 60.5 µM (inactive); in the assay with UACC-62 it was 99.5 µM (inactive).
As to `Oc1cccnc1CN1CCCCC1`, the GI50 in the assay on A498, in the assay with A549, with ACHN, in the assay with CAKI-1, in the assay on DU-145 and in the assay with EKVX was > 100 µM (inactive) in each case. Further, the GI50 with HOP-92, in the assay with KM12, with MDA-MB-231, with MDA-MB-435, with MDA-N and with MOLT-4 was > 100 µM (inactive) in each case. Further, the GI50 in the assay on Malme-3M, in the assay on NCI/ADR-RES, with OVCAR-5, in the assay with RXF 393, in the assay on SF-295 and in the assay with SN12C was > 100 µM (inactive) in each case. Further, the GI50 in the assay with SW-620 and with UACC-62 was > 100 µM (inactive) each time.
Turning to `Cc1ccc(S(=O)(=O)NC(=O)Nc2nc[nH]n2)cc1`, the GI50 with A498, in the assay with A549, with ACHN, in the assay on CAKI-1, with DU-145 and in the assay on EKVX was > 100 µM (inactive) in each case. Besides, the GI50 in the assay on HOP-92, in the assay with KM12, in the assay on MDA-MB-231, with MDA-MB-435, with MDA-N and in the assay with MOLT-4 was > 100 µM (inactive) in each case. Moreover, the GI50 in the assay with Malme-3M, in the assay on NCI/ADR-RES, in the assay on OVCAR-5, in the assay on RXF 393, in the assay with SF-295 and in the assay on SN12C was > 100 µM (inactive) each time. Besides, the GI50 with SW-620 and with UACC-62 was > 100 µM (inactive) throughout.
Take `O=c1[nH]nc(-c2ccccc2)n1/N=C/c1c[nH]c2ccccc12`: the GI50 in the assay with A498, in the assay on A549, in the assay with ACHN, with CAKI-1, with DU-145 and in the assay with EKVX was > 100 µM (inactive) in each case. Besides, the GI50 in the assay with HOP-92 was > 100 µM (inactive); in the assay with KM12 it was 5 µM (inactive); in the assay with MDA-MB-231, > 100 µM (inactive); in the assay on MDA-MB-435 it was 77.1 µM (inactive); with MDA-N it was > 100 µM (inactive); in the assay on MOLT-4, > 100 µM (inactive). The GI50 with Malme-3M was > 100 µM (inactive); in the assay with NCI/ADR-RES it was > 100 µM (inactive); in the assay on OVCAR-5 it was > 100 µM (inactive); in the assay on RXF 393 it was 98.4 µM (inactive); in the assay on SF-295 it was > 100 µM (inactive); in the assay on SN12C, > 100 µM (inactive). The GI50 is > 100 µM (inactive) in the assay on SW-620 and 96.8 µM (inactive) in the assay on UACC-62.
Regarding `CCC(c1ccc2cc(O)ccc2c1)C(C)(C)C(=O)O` (stereo not given), the GI50 in the assay with A498, with A549, in the assay on ACHN, with CAKI-1, in the assay on DU-145 and in the assay on EKVX was > 100 µM (inactive) in each case. For the same compound, the GI50 in the assay with HOP-92, in the assay with KM12, in the assay on MDA-MB-231, in the assay with MDA-MB-435, in the assay with MDA-N and in the assay on MOLT-4 was > 100 µM (inactive) throughout. Moreover, the GI50 in the assay with Malme-3M, with NCI/ADR-RES, with OVCAR-5, with RXF 393, in the assay on SF-295 and in the assay with SN12C was > 100 µM (inactive) in each case. Besides, the GI50 with SW-620 and with UACC-62 was > 100 µM (inactive) in each case.
For the compound `Cc1ccc2cccc(-c3cccc4ccccc34)c2n1`, the GI50 with A498 was 20.4 µM (inactive); in the assay on A549, 29.5 µM (inactive); in the assay on ACHN, 24.4 µM (inactive); in the assay with CAKI-1 it was 26.6 µM (inactive); in the assay on DU-145, 36.8 µM (inactive); in the assay on EKVX, 21.4 µM (inactive). Moreover, the GI50 in the assay on HOP-92 was 12.6 µM (inactive); in the assay on KM12, 15 µM (inactive); in the assay on MDA-MB-231 it was 22.9 µM (inactive); with MDA-MB-435, 2.69 µM (inactive); in the assay on MDA-N, 4.2 µM (inactive); in the assay with MOLT-4, 13.2 µM (inactive). Besides, the GI50 in the assay with Malme-3M is 4.63 µM (inactive); in the assay with NCI/ADR-RES, 26.1 µM (inactive); in the assay on OVCAR-5, 18.3 µM (inactive); in the assay with RXF 393, 13.6 µM (inactive); in the assay on SF-295 it was 22.9 µM (inactive); with SN12C it was 25.6 µM (inactive). Moreover, the GI50 in the assay on SW-620 was 25.2 µM (inactive); with UACC-62, 19.5 µM (inactive).
With `O=C1[C@@H]2Cc3c([nH]c4ccccc34)C(C3CCCCC3)N2C(=O)[C@@H]2CCCN12` (stereo not given in full), the GI50 in the assay on A498 was 37.8 µM (inactive); with A549, 33.1 µM (inactive); in the assay on ACHN, 28.9 µM (inactive); with CAKI-1, 31.7 µM (inactive); in the assay with DU-145 it was 55.5 µM (inactive); with EKVX it was 33.5 µM (inactive). Besides, the GI50 was 29.6 µM (inactive) with HOP-92; 23.3 µM (inactive) with KM12; 21.1 µM (inactive) in the assay on MDA-MB-231; 34.2 µM (inactive) in the assay on MDA-MB-435; 30.2 µM (inactive) in the assay on MDA-N; 23 µM (inactive) with MOLT-4. The GI50 in the assay with Malme-3M was 18.9 µM (inactive); in the assay on NCI/ADR-RES, 22 µM (inactive); in the assay on OVCAR-5 it was 37.8 µM (inactive); in the assay on RXF 393, 29.9 µM (inactive); in the assay with SF-295 it was 21.1 µM (inactive); with SN12C, 26.5 µM (inactive). For the same compound, the GI50 is 41.2 µM (inactive) in the assay with SW-620 and 17.3 µM (inactive) in the assay with UACC-62.
In the case of `CC[C@@]1(OC(=O)C(N)CCCCN)C(=O)OCc2c1cc1n(c2=O)Cc2cc3ccccc3nc2-1` (stereo not given in full), the GI50 is 0.0802 µM (active) in the assay with A498; 0.0274 µM (active) with A549; 0.0135 µM (active) in the assay with ACHN; < 0.0152 µM (active) in the assay with CAKI-1; < 0.0199 µM (active) in the assay with DU-145; 0.753 µM (active) with EKVX. The GI50 in the assay on HOP-92 was 0.179 µM (active); in the assay on KM12 it was 0.35 µM (active); with MDA-MB-231 it was 1.53 µM (inactive); in the assay on MDA-MB-435, 0.293 µM (active); in the assay with MDA-N, 0.167 µM (active); with MOLT-4, < 0.01 µM (active). The GI50 was 0.196 µM (active) in the assay on Malme-3M; 0.0354 µM (active) in the assay with NCI/ADR-RES; 0.238 µM (active) in the assay with OVCAR-5; 0.122 µM (active) in the assay on RXF 393; < 0.0109 µM (active) in the assay with SF-295; < 0.0149 µM (active) in the assay with SN12C. Moreover, the GI50 with SW-620 is 0.04 µM (active); in the assay on UACC-62, < 0.0128 µM (active).
As to `COc1ccc(-c2oc3cc(O)c(OC)c(O)c3c(=O)c2O)cc1` [BETULETOL], the GI50 is 7.11 µM (inactive) in the assay with A498; 3.33 µM (inactive) in the assay on A549; 2.77 µM (inactive) in the assay with ACHN; 6.03 µM (inactive) in the assay on CAKI-1; 2.36 µM (inactive) with DU-145; 18.9 µM (inactive) in the assay with EKVX. The GI50 is 6.7 µM (inactive) in the assay with HOP-92; 12 µM (inactive) in the assay with KM12; 12.9 µM (inactive) with MDA-MB-231; 17.9 µM (inactive) in the assay with MDA-MB-435; 13.7 µM (inactive) with MDA-N; 1.85 µM (inactive) in the assay on MOLT-4. Also, the GI50 in the assay with Malme-3M was 10.5 µM (inactive); in the assay on NCI/ADR-RES, 6.73 µM (inactive); with OVCAR-5 it was 26.9 µM (inactive); in the assay on RXF 393, 12 µM (inactive); in the assay on SF-295, 6.08 µM (inactive); with SN12C, 5.6 µM (inactive). For the same compound, the GI50 in the assay on SW-620 is 20.5 µM (inactive); in the assay on UACC-62 it was 10.3 µM (inactive).
